Values after ≈ are worked out from the molar mass of the structure shown. Marks after values point to notes of the source that are not given here. Non-standard residues stand in square brackets, D forms with d. Residues, ends and D or L forms follow the SMILES beside them. dPhe(4-CF3) = N[C@H](Cc1ccc(C(F)(F)F)cc1)C(=O)O; d2Nal = N[C@H](Cc1ccc2ccccc2c1)C(=O)O
How the values were obtained:
[1] = system: Staphylococcus aureus (NRS 384); assay: microbe, parasite or virus in culture; type: cell-based; settings: NRS 384
Method in brief: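 CLSI broth microdilution with serial twofold dilutions gave MICs against S. aureus NRS 384, with 5 parallel replicates. Levofloxacin and the AMP Cbf-K16 served as positive controls.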

[2] = system: Klebsiella pneumoniae ATCC 700603; type: cell-based
Method in brief: (§1)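 Serial twofold peptide dilutions were set up in microdilution format per CLSI, MICs were read, and the procedure was repeated in 5 parallel runs.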

[3] = system: Serratia marcescens ATCC 29021; type: cell-based
Method in brief: as §1

[4] = system: Salmonella typhimurium ATCC 14028; type: cell-based
Method in brief: as §1

Candida utilis ATCC 9950 = type: cell-based
Method in brief: as §1

[5] = system: Bacillus subtilis ATCC 6633; type: cell-based
Method in brief: as §1

[6] = system: Candida glabrata ATCC 15126; type: cell-based
Method in brief: as §1

[7] = system: Candida tropicalis ATCC 750; type: cell-based
Method in brief: as §1

[8] = system: Candida albicans ATCC MYA-2876; type: cell-based
Method in brief: as §1

[9] = system: Pseudomonas aeruginosa ATCC 27853; type: cell-based
Method in brief: as §1

[10] = system: Staphylococcus aureus ATCC 25923; type: cell-based
Method in brief: as §1

Candida krusei ATCC 6258 = type: cell-based
Method in brief: as §1

[11] = system: Escherichia coli ATCC 25922; type: cell-based
Method in brief: as §1

[12] = system: Trichophyton ATCC MYA-4438; type: cell-based
Method in brief: as §1

Enterococcus ATCC 29212 = type: cell-based
Method in brief: as §1

[13] = system: Corynebacterium ATCC 7715; type: cell-based
Method in brief: as §1

[14] = system: Pseudomonas aeruginosa ATCC 27853; assay: Injectable formulations on mice infected with peritonitis; type: in vivo, ICR mice; settings: twice a day for 3 days; for Number of mice that died on each day after infection: day 1 / Number of mice that died on each day after infection: day 2 / Number of mice that died on each day after infection: day 3 / Number of mice that died on each day after infection: day 4 / Number of mice that died on each day after infection: day 5 / Average survival times (Days): n = 10; for Average survival times (Days): observed for 14 d
Method in brief: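 ICR mice of both sexes (10 per group) infected intraperitoneally with 0.2 mL P. aeruginosa ATCC 27853 at 1×10^9 CFU/mL. Injectable formulations dosed by body weight via tail vein twice daily for 3 days; deaths and survival time recorded over 14 d.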

[15] = system: Staphylococcus aureus (NRS 384); settings: NRS 384, 3 h
Description: Trypsin (250 U/mg, pH=8.0) and AMPs (LV-1 to LV-30) were mixed in a ratio of 1:10 (w/w) and added to a reaction buffer (0.2 M sodium phosphate, 1 mM CaCl2), pH 7.5), and then incubated at 37° C. for 3 h.

[16] = system: Escherichia coli ATCC 25922; assay: Oral formulations on mice with systemic bacterial infection; type: in vivo, ICR mice; settings: three times a day for 7 days; for Number of mice that died on each day after infection: day 4 / Number of mice that died on each day after infection: day 5 / Number of mice that died on each day after infection: day 6 / Number of mice that died on each day after infection: day 7 / Number of mice that died on each day after infection: day 8 / Average survival times (Days): n = 10; for Average survival times (Days): observed for 14 d
Method in brief: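 ICR mice of both sexes, 10 per group, infected i.p. with 0.2 mL E. coli ATCC 25922 at 1×10^7 CFU/mL. Compounds gavaged by body weight immediately after infection, three times daily for 7 days; deaths and survival time recorded over 14 d observation.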

CC(=O)N[C@H](CCCCN)C(=O)N[C@H](CCCCN)C(=O)N[C@H](CC(C)C)C(=O)N[C@H](CC(C)C)C(=O)N[C@H](Cc1ccc2ccccc2c1)C(=O)N[C@H](CCCNC(=N)N)C(=O)N[C@H](CC(C)C)C(=O)N[C@H](CCCCN)C(=O)N[C@H](Cc1ccc2ccccc2c1)C(=O)N[C@H](CCCNC(=N)N)C(=O)N[C@H](CCCCN)C(N)=O [LV-19] (Ac-[dK][dK][dL][dL][d2Nal][dR][dL][dK][d2Nal][dR][dK]-NH2)
MIC against Staphylococcus aureus (NRS 384) [1]: 1 µg/mL (≈ 0.618 µM) | MIC Klebsiella pneumoniae ATCC 700603 [2]: 2 µg/mL (≈ 1.24 µM) | MIC Serratia marcescens ATCC 29021 [3]: 8 µg/mL (≈ 4.94 µM) | MIC Salmonella typhimurium ATCC 14028 [4]: 2 µg/mL (≈ 1.24 µM) | MIC Candida utilis ATCC 9950 (Candida utilis ATCC 9950): 8 µg/mL (≈ 4.94 µM) | MIC Bacillus subtilis ATCC 6633 [5]: 8 µg/mL (≈ 4.94 µM) | MIC Candida glabrata ATCC 15126 [6]: 8 µg/mL (≈ 4.94 µM) | MIC Candida tropicalis ATCC 750 [7]: 4 µg/mL (≈ 2.47 µM) | MIC Candida albicans ATCC MYA-2876 [8]: 8 µg/mL (≈ 4.94 µM) | MIC Pseudomonas aeruginosa ATCC 27853 [9]: 1 µg/mL (≈ 0.618 µM) | MIC Staphylococcus aureus ATCC 25923 [10]: 1 µg/mL (≈ 0.618 µM) | MIC Candida krusei ATCC 6258 (Candida krusei ATCC 6258): 16 µg/mL (≈ 9.89 µM) | MIC Escherichia coli ATCC 25922 [11]: 1 µg/mL (≈ 0.618 µM) | MIC Trichophyton ATCC MYA-4438 [12]: 8 µg/mL (≈ 4.94 µM) | MIC Enterococcus ATCC 29212 (Enterococcus ATCC 29212): 2 µg/mL (≈ 1.24 µM) | MIC Corynebacterium ATCC 7715 [13]: 2 µg/mL (≈ 1.24 µM) | Number of mice that died on each day after infection: day 1 ([14]; 0.2 mg/kg via tail vein): 3 Mouse | Number of mice that died on each day after infection: day 2 ([14]; 0.2 mg/kg via tail vein): 2 Mouse | Number of mice that died on each day after infection: day 3 ([14]; 0.2 mg/kg via tail vein): 0 Mouse | Number of mice that died on each day after infection: day 4 ([14]; 0.2 mg/kg via tail vein): 0 Mouse | Number of mice that died on each day after infection: day 5 ([14]; 0.2 mg/kg via tail vein): 0 Mouse | Average survival times (Days) ([14]; 0.2 mg/kg via tail vein): 7.7** Days | Number of mice that died on each day after infection: day 1 ([14]; 1 mg/kg via tail vein): 0 Mouse | Number of mice that died on each day after infection: day 2 ([14]; 1 mg/kg via tail vein): 0 Mouse | Number of mice that died on each day after infection: day 3 ([14]; 1 mg/kg via tail vein): 1 Mouse | Number of mice that died on each day after infection: day 4 ([14]; 1 mg/kg via tail vein): 0 Mouse | Number of mice that died on each day after infection: day 5 ([14]; 1 mg/kg via tail vein): 2 Mouse | Average survival times (Days) ([14]; 1 mg/kg via tail vein): 11.1**** Days | Number of mice that died on each day after infection: day 1 ([14]; 5 mg/kg via tail vein): 1 Mouse | Number of mice that died on each day after infection: day 2 ([14]; 5 mg/kg via tail vein): 0 Mouse | Number of mice that died on each day after infection: day 3 ([14]; 5 mg/kg via tail vein): 2 Mouse | Number of mice that died on each day after infection: day 4 ([14]; 5 mg/kg via tail vein): 0 Mouse | Number of mice that died on each day after infection: day 5 ([14]; 5 mg/kg via tail vein): 0 Mouse | Average survival times (Days) ([14]; 5 mg/kg via tail vein): 10.5**** Days | survival time of mice infected with Pseudomonas aeruginosa ([14]; tail vein, observed 14 d): superior to those of the Levofloxacin group | Trypsin MIC [15]: 1 µg/mL | Number of mice that died on each day after infection: day 4 ([16]; 0.2 mg/kg gavage): 0 Mouse | Number of mice that died on each day after infection: day 5 ([16]; 0.2 mg/kg gavage): 2 Mouse | Number of mice that died on each day after infection: day 6 ([16]; 0.2 mg/kg gavage): 1 Mouse | Number of mice that died on each day after infection: day 7 ([16]; 0.2 mg/kg gavage): 2 Mouse | Number of mice that died on each day after infection: day 8 ([16]; 0.2 mg/kg gavage): 1 Mouse | Average survival times (Days) ([16]; 0.2 mg/kg gavage): 9.4** Days | Number of mice that died on each day after infection: day 4 ([16]; 1 mg/kg gavage): 0 Mouse | Number of mice that died on each day after infection: day 5 ([16]; 1 mg/kg gavage): 1 Mouse | Number of mice that died on each day after infection: day 6 ([16]; 1 mg/kg gavage): 1 Mouse | Number of mice that died on each day after infection: day 7 ([16]; 1 mg/kg gavage): 1 Mouse | Number of mice that died on each day after infection: day 8 ([16]; 1 mg/kg gavage): 0 Mouse | Average survival times (Days) ([16]; 1 mg/kg gavage): 11.6**** Days | Number of mice that died on each day after infection: day 4 ([16]; 5 mg/kg gavage): 0 Mouse | Number of mice that died on each day after infection: day 5 ([16]; 5 mg/kg gavage): 2 Mouse | Number of mice that died on each day after infection: day 6 ([16]; 5 mg/kg gavage): 1 Mouse | Number of mice that died on each day after infection: day 7 ([16]; 5 mg/kg gavage): 1 Mouse | Number of mice that died on each day after infection: day 8 ([16]; 5 mg/kg gavage): 0 Mouse | Average survival times (Days) ([16]; 5 mg/kg gavage): 10.7*** Days | survival time of mice infected with Escherichia coli ([16]; gavage, observed 14 d): superior to those of the Levofloxacin group

CC(=O)N[C@H](CCCNC(=N)N)C(=O)N[C@H](CCCCN)C(=O)N[C@H](CC(C)C)C(=O)N[C@H](CC(C)C)C(=O)N[C@H](Cc1ccc(C(F)(F)F)cc1)C(=O)N[C@H](CCCCN)C(=O)N[C@H](CC(C)C)C(=O)N[C@H](CCCCN)C(=O)N[C@H](Cc1ccc(C(F)(F)F)cc1)C(=O)N[C@H](CCCCN)C(=O)N[C@H](CCCNC(=N)N)C(N)=O [LV-9] (Ac-[dR][dK][dL][dL][dPhe(4-CF3)][dK][dL][dK][dPhe(4-CF3)][dK][dR]-NH2)
MIC against Staphylococcus aureus (NRS 384) [1]: 1 µg/mL (≈ 0.605 µM) | MIC Klebsiella pneumoniae ATCC 700603 [2]: 2 µg/mL (≈ 1.21 µM) | MIC Serratia marcescens ATCC 29021 [3]: 4 µg/mL (≈ 2.42 µM) | MIC Salmonella typhimurium ATCC 14028 [4]: 2 µg/mL (≈ 1.21 µM) | MIC Candida utilis ATCC 9950 (Candida utilis ATCC 9950): 16 µg/mL (≈ 9.67 µM) | MIC Bacillus subtilis ATCC 6633 [5]: 8 µg/mL (≈ 4.84 µM) | MIC Candida glabrata ATCC 15126 [6]: 8 µg/mL (≈ 4.84 µM) | MIC Candida tropicalis ATCC 750 [7]: 16 µg/mL (≈ 9.67 µM) | MIC Candida albicans ATCC MYA-2876 [8]: 8 µg/mL (≈ 4.84 µM) | MIC Pseudomonas aeruginosa ATCC 27853 [9]: 2 µg/mL (≈ 1.21 µM) | MIC Staphylococcus aureus ATCC 25923 [10]: 2 µg/mL (≈ 1.21 µM) | MIC Candida krusei ATCC 6258 (Candida krusei ATCC 6258): 16 µg/mL (≈ 9.67 µM) | MIC Escherichia coli ATCC 25922 [11]: 2 µg/mL (≈ 1.21 µM) | MIC Trichophyton ATCC MYA-4438 [12]: 16 µg/mL (≈ 9.67 µM) | MIC Enterococcus ATCC 29212 (Enterococcus ATCC 29212): 4 µg/mL (≈ 2.42 µM) | MIC Corynebacterium ATCC 7715 [13]: 2 µg/mL (≈ 1.21 µM) | Number of mice that died on each day after infection: day 1 ([14]; 1 mg/kg via tail vein): 1 Mouse | Number of mice that died on each day after infection: day 2 ([14]; 1 mg/kg via tail vein): 2 Mouse | Number of mice that died on each day after infection: day 3 ([14]; 1 mg/kg via tail vein): 0 Mouse | Number of mice that died on each day after infection: day 4 ([14]; 1 mg/kg via tail vein): 1 Mouse | Number of mice that died on each day after infection: day 5 ([14]; 1 mg/kg via tail vein): 0 Mouse | Average survival times (Days) ([14]; 1 mg/kg via tail vein): 9.3*** Days | Trypsin MIC [15]: 1 µg/mL | Number of mice that died on each day after infection: day 4 ([16]; 1 mg/kg gavage): 1 Mouse | Number of mice that died on each day after infection: day 5 ([16]; 1 mg/kg gavage): 1 Mouse | Number of mice that died on each day after infection: day 6 ([16]; 1 mg/kg gavage): 1 Mouse | Number of mice that died on each day after infection: day 7 ([16]; 1 mg/kg gavage): 2 Mouse | Number of mice that died on each day after infection: day 8 ([16]; 1 mg/kg gavage): 0 Mouse | Average survival times (Days) ([16]; 1 mg/kg gavage): 9.9** Days
